Laboratory results taken from patent publication US12234245B2, “Sulfonimidamide compounds as inhibitors of interleukin-1 activity” (Genentech, Inc., priority 2018, dated 2025).

Key:
Type in all cases: cell-based
PBMCs = experiment: CTG (CellTiter-Glo) viability assay in PBMCs; details: Homo sapiens, PBMC, LPS and nigericin stimulated
Experimental: (§1) Human peripheral blood mononuclear cells (PBMCs), consisting of lymphocytes (T, B and NK cells), monocytes and dendritic cells, were freshly isolated from human peripheral blood from healthy donors. Cells were obtained through an IRB approved donor program by iXCells Biotechnologies where all the donors were tested for bacterial and viral infections. Cells were purified from peripheral blood using ficoll gradient centrifugation.
(§2) Fresh or cryopreserved PMBCs were seeded in V-bottom 96-well plate at 0.5-1×10^5 cells per well and incubated overnight at 37° C. with 5% CO2 in RPMI 1640 medium with GlutaMAX supplement, 4.5 g/L D-glucose, 10% Fetal Bovine Serum (FBS), […] Sodium Pyruvate, 1% Penicillin/Streptomycin, 10 mM HEPES and 0.05 mM of β-mercaptoethanol. Freshly isolated or cryopreserved KCs cells were seeded in flat-bottom 96-well plates at 0.6-1.5×10^5 cells/well and incubated overnight at 37° C. 5% CO2 in RPMI 1640 Medium with GlutaMAX supplement, FBS, 1% Penicillin/Streptomycin and 10 mM HEPES. The following day, the cells were primed with 100 ng/mL of lipopolysaccharides (LPS; Sigma Aldrich) in FBS-free RPMI 1640 for 3 h. After the priming step, the media was removed and PBMCs were pre-incubated with serial concentrations of test compounds (0.00017-10 uM) or vehicle (DMSO) for 30 min in FBS-free media prior to addition of the NLRP3 activator. Cells were then stimulated with 10 uM Nigericin (Sigma Aldrich; InvivoGen) for 1.5 h. Plates were centrifuged at 1,500 rpm for 3 minutes to pellet cells and supernatant was transferred into new plates for subsequent experiments.
Viability of compound treated cells was measured using CellTiter-Glo® assay (Promega, Madison, Wis.) that measures the ATP content of cells which is proportional to the number of live cells within a well. This is a counter-screen to establish that the reduction of IL-1β levels in LPS and nigericin stimulated and compound treated cells is not due to cytotoxicity, but rather through the inhibition of the inflammasome pathway. Compounds inhibiting NRLP3 inflammasome activation ultimately increase the viability of LPS and nigericin stimulated cells by blocking NLRP3 mediated pyroptosis that would otherwise lead to cell lysis.

NLRP3 inflammasome [1] = molecular target: T1, NLRP3 inflammasome (Homo sapiens, UniProt Q96P20); experiment: NLRP3 inflammasome activation assay in PBMCs, IL-1β release (ELISA / HTRF); parameters: were freshly isolated from human peripheral blood from healthy donors; StemCells Technologies; host or cells: primary human PBMCs, LPS-primed, nigericin-stimulated; details: LPS primed
T1 sequence (Q96P20 whole entry): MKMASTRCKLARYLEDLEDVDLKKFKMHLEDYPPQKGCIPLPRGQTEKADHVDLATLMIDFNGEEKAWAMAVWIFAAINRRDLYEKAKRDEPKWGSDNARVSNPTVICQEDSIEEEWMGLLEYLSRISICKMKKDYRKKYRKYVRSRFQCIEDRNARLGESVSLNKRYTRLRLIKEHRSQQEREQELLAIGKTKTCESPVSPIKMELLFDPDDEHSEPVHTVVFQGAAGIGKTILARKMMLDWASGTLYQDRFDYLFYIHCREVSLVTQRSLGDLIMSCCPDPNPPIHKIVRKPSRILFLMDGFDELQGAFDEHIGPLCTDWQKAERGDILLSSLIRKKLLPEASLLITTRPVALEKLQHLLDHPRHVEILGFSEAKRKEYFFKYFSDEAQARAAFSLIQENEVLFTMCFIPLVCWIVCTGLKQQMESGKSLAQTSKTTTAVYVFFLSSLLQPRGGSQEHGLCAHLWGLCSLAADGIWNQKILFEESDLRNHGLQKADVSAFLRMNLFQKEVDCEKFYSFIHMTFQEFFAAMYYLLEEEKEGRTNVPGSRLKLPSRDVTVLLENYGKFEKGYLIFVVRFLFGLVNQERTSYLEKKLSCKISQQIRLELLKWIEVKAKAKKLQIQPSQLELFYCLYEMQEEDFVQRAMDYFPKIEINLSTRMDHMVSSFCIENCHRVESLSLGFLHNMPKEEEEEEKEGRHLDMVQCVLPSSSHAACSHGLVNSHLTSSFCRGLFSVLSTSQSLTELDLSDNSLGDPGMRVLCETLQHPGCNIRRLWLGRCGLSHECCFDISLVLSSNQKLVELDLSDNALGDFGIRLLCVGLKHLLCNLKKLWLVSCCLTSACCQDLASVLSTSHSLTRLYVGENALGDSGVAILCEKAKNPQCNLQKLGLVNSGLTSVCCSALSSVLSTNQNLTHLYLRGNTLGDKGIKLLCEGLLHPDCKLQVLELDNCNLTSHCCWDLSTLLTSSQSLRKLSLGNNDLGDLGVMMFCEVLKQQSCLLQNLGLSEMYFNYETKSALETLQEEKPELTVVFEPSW
Experimental: Some of the following assays were used to determine the inhibitory activity of the compounds on the NLRP3 inflammasome using a common inflammasome activation stimuli—nigericin.
as §1, §2
For ELISA assays cells were seeded into 96-well plates. Post study, supernatants were removed and the levels of mature IL-1β, IL18 and TNFα (Quantikine ELISA, R&D systems) were measured in cell conditioned media by ELISA according to manufacturer's instructions.
Human frozen PBMCs were purchased from StemCells Technologies. Cells were rapidly thawed in 37° C. water bath and resuspended in fresh assay media consisting of RPMI 1640 Medium containing 1% sodium pyruvate, 10 mM HEPES, 2.5 g/L glucose and 55 μM 2-Mercaptoethanol. Cell density was adjusted to 8.1×10^5 cells/mL. Cells were primed by adding lipopolysaccharide (Invivogen Ultrapure lipopolysaccharide from E. coli, tlrl-3pelps) at a final concentration of 100 ng/mL in cell suspension. 37 μL of cell suspension with LPS was seeded per well of a 384 well plate and incubated for 3 hours at 37° C. and 5% CO2. After priming, PBMCs were preincubated with serially diluted test compounds with starting concentration of 40 μM followed by 2-fold dilution for a 20-point curve or vehicle (DMSO) for 30 min in assay media at 37° C. and 5% CO2. Cells were then stimulated with 10 μM nigericin (Invivogen, tlrl-nig-5) for 90 min at 37° C. and 5% CO2 to activate NLRP3 dependent inflammasome pathway and IL-1β release in cell culture supernatant. Cells were centrifuged at 1200 RPM for 1 min and 40 μL of supernatant was transferred into fresh plates and stored at −80° C. until IL-1β analysis.
16 μL of supernatant was added to white 384 well HTRF plates, followed by addition of 4 μL of HTRF cocktail in each well. Plates were quickly centrifuged, sealed and incubated overnight at room temperature. Next day, HTRF signal was read on a Pherastar and ratio of 665/620 was calculated based on manufacturer's protocol to obtain concentration of IL-1β in cell culture supernatant.

NLRP3 inflammasome [2] = molecular target: T1, NLRP3 inflammasome; experiment: THP-1 ASC-GFP speck assay; parameters: host or cells: THP-1 ASC-GFP cells, PMA-differentiated, LPS-primed, nigericin-stimulated; details: THP-1 ASC-GFP cells, PMA differentiated, LPS primed, 10 μM nigericin; read-out: THP1 ASC Speck IC50
Method in brief: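 PMA-differentiated (500 ng/ml, overnight) THP-1 ASC-GFP cells primed with 1 μg/mL LPS for 3 h, preincubated 30 min with compound (top 40 μM, 2-fold, 20 points), then stimulated with 10 μM nigericin for 90 min at 37 °C. After fixation and Hoechst staining, imaging gave the percentage of cells bearing a GFP ASC speck.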

[3] = 10 uM nigericin, read-out: PBMC IL-1 β IC50
[4] = 10 μM nigericin, read-out: PBMC IL-1β IC50

Row | SMILES | IC50 (PBMCs) [µM] | IC50 (NLRP3 inflammasome [1]; [3]) [µM] | IC50 (NLRP3 inflammasome [1]; [4]) [µM] | IC50 (NLRP3 inflammasome [2]) [µM]
1 | NS(=O)(=NC(=O)Nc1c2c(c(F)c3c1CCC3)CCC2)c1cnn2c1OCCC2 (centres unmarked) | < 0.1 | < 0.1 | – | –
2 | Cn1cc(S(N)(=O)=NC(=O)Nc2c3c(cc4c2CCC4)CCC3)cn1 (centres unmarked) | 0.1 to 1 | 0.1 to 1 | – | –
3 | CC1(C)COc2c(S(N)(=O)=NC(=O)Nc3c4c(cc5c3CCC5)CCC4)cnn2C1 (centres unmarked) | < 0.1 | < 0.1 | – | –
4 | CN=S(=O)(NC(=O)Nc1c2c(cc3c1CCC3)CCC2)c1cnn2c1OCCC2 (centres unmarked) | > 10 | > 10 | – | –
5 | N=S(=O)(NC(=O)Nc1c2c(cc3c1CCC3)CCC2)c1cnn(CC2CC2)c1 (centres unmarked) | 0.1 to 1 | 0.1 to 1 | – | –
6 | CO[C@@H]1COc2c(S(N)(=O)=NC(=O)Nc3c4c(cc5c3CCC5)CCC4)cnn2C1 (mixture of isomers) [Example 2, (6S)—N′-((1,2,3,5,6,7-hexahydro-s-indacen-4-yl)carbamoyl)-6-methoxy-6,7-dihydro-5H-pyrazolo[5,1-b][1,3]oxazine-3-sulfonimidamide] | 0.1 | – | 0.024 | –
7 | CC(C)c1cc(F)cc(C(C)C)c1NC(=O)N=S(N)(=O)c1cnn2c1OCCC2 (racemic) [Example 3, N′-((4-fluoro-2,6-diisopropylphenyl)carbamoyl)-6,7-dihydro-5H-pyrazolo[5,1-b][1,3]oxazine-3-sulfonimidamide] | 0.176 | – | 0.41 | –
8 | NS(=O)(=NC(=O)Nc1c2c(c(F)c3c1CCC3)CCC2)c1cnn2c1OCCC2 (racemic) [Example 4, N′-((8-fluoro-1,2,3,5,6,7-hexahydro-s-indacen-4-yl)carbamoyl)-6,7-dihydro-5H-pyrazolo[5,1-b][1,3]oxazine-3-sulfonimidamide] | 0.035 | – | 0.05 | –
9 | Cn1cc(S(N)(=O)=NC(=O)Nc2c3c(cc4c2CCC4)CCC3)cn1 (racemic) [Example 5, N′-((1,2,3,5,6,7-hexahydro-s-indacen-4-yl)carbamoyl)-1-methyl-1H-pyrazole-4-sulfonimidamide] | 0.648 | – | 1.02 | –
10 | CC1(C)COc2c(S(N)(=O)=NC(=O)Nc3c4c(cc5c3CCC5)CCC4)cnn2C1 (racemic) [Example 6, N′-((1,2,3,5,6,7-hexahydro-s-indacen-4-yl)carbamoyl)-6,6-dimethyl-6,7-dihydro-5H-pyrazolo[5,1-b][1,3]oxazine-3-sulfonimidamide] | 0.003 | – | 0.014 | –
11 | CNS(=O)(=NC(=O)Nc1c2c(cc3c1CCC3)CCC2)c1cnn2c1OCCC2 (racemic) [Example 9, N′-((1,2,3,5,6,7-hexahydro-s-indacen-4-yl)carbamoyl)-N-methyl-6,7-dihydro-5H-pyrazolo[5,1-b][1,3]oxazine-3-sulfonimidamide] | > 10 | – | > 10 | –
12 | NS(=O)(=NC(=O)Nc1c2c(cc3c1CCC3)CCC2)c1cnn(CC2CC2)c1 (racemic) [Example 10, 1-(cyclopropylmethyl)-N′-((1,2,3,5,6,7-hexahydro-s-indacen-4-yl)carbamoyl)-1H-pyrazole-4-sulfonimidamide] | 0.36 | – | 0.35 | –
13 | NS(=O)(=NC(=O)Nc1c2c(c(C(=O)O)c3c1CCC3)CCC2)c1cnn2c1OCCC2 (racemic) [Example 37, 8-(3-(6,7-dihydro-5H-pyrazolo[5,1-b][1,3]oxazine-3-sulfonimidoyl)ureido)-1,2,3,5,6,7-hexahydro-s-indacene-4-carboxylic acid] | > 10 | – | > 10 | > 20
14 | CC(C)c1cc(F)cc(C(C)C)c1NC(=O)N=S(N)(=O)c1cnn2c1OCCC2 (single isomer, unassigned) [Example 7] | 0.003 | – | 0.29 | –
